Assay results as given in patent publication US20230233606A1, “Cell” (AUTOLUS LIMITED, priority 2019, published 2023).

Experiments:
Type in all cases: cell-based
SupT1 CD22 High [1] = assay: IFN-γ release with increasing concentrations of 3-IB-PP1, Example 5; details: 3-IB-PP1 0.156 uM-10 uM, T cells expressing CSK^AS, E:T 1:4, 72 h
Protocol: (§1) Analysis by flow cytometry was carried out at 72 h post co-culture set up. Each condition was tested with a minimum of 3 donors (n=3), with median indicated. All data was normalised to NT T cells. T cells were co-cultured with SupT1 NT (left) or SupT1 CD22 High (right) target cells at an E:T ratio of 1:4.
(§2) The co-culture described in Example 4 was repeated, but this time with increasing concentrations of 3-IB-PP1 (0.156 uM-10 uM).

SupT1 CD22 High [2] = assay: IL-2 release ELISA, Example 4, SupT1 CD22 High; details: 3-IB-PP1 10 uM, CSK^AS expressing T cells, E:T 1:4, 72 h
Protocol: (§3) Supernatant taken at 72 h post co-culture set up was analysed by ELISA for the presence of IL-2. Each condition was tested with a minimum of 6 donors (n=6), with median indicated. T cells were co-cultured with SupT1 NT (left), SupT1 CD22 High (middle) or SupT1 CD22 Low (right) target cells at an E:T ratio of 1:4.
(§4) In order to investigate cytokine release, supernatant was taken at 72 h post co-culture set up and analysed by ELISA for the presence of IL-2 and IFN-γ.

SupT1 CD22 Low [3] = assay: IFN-γ release ELISA, Example 4, SupT1 CD22 Low; details: 3-IB-PP1 10 uM, T cells expressing CSK^AS, E:T 1:4, 72 h
Protocol: as §3, with “IFN-γ.” for “IL-2.”
as §4

SupT1 CD22 Low [4] = assay: IL-2 release ELISA, Example 4, SupT1 CD22 Low; details: 3-IB-PP1 10 uM, CSK^AS expressing T cells, E:T 1:4, 72 h
Protocol: as §3, §4

SupT1 CD22 Low [5] = assay: FBK assay with or without 3-IB-PP1, Example 4, SupT1 CD22 Low; details: 3-IB-PP1 10 uM; T cells expressing CSK^AS; CD22 Low (3,309 molecules per cell); E:T 1:4; 72 h
Protocol: as §1, with “6” for “3”, “(n=6),” for “(n=3),”, “(left), SupT1 CD22 High (middle)” for “(left)”, “Low” for “High”, “1:4. Statistics were run using a paired t-test. *P<0.05, **P<0.01, ***P<0.001, ****P<0.0001.” for “1:4.”
(§5) PBMCs were either left untransduced or transduced with one of the constructs. The capacity of the CAR-T cells to kill target cells expressing CD22 was investigated using a FACS-based killing (FBK) assay. […] Two different types of CD22-expressing SupT1 target cells were generated, one expressing CD22 at a low density (average number of CD22 molecules per cell: 3,309) and one expressing CD22 at a high density (average number of CD22 molecules per cell: 20,262).

SupT1 CD22 High [6] = assay: IFN-γ release ELISA, Example 4, SupT1 CD22 High; details: 3-IB-PP1 10 uM, T cells expressing CSK^AS, E:T 1:4, 72 h
Protocol: as §3, with “IFN-γ.” for “IL-2.”
as §4

SupT1 CD22 High [7] = assay: FBK assay with or without 3-IB-PP1, Example 4, SupT1 CD22 High; details: 3-IB-PP1 10 uM; T cells expressing CSK^AS; CD22 High (20,262 molecules per cell); E:T 1:4; 72 h
Protocol: as §1, with “6” for “3”, “(n=6),” for “(n=3),”, “(left), SupT1 CD22 High (middle)” for “(left)”, “Low” for “High”, “1:4. Statistics were run using a paired t-test. *P<0.05, **P<0.01, ***P<0.001, ****P<0.0001.” for “1:4.”
as §5

SupT1 CD22 High [8] = assay: FBK assay with increasing concentrations of 3-IB-PP1, Example 5; details: 3-IB-PP1 0.156 uM-10 uM; T cells expressing CSK^AS; CD22 High (6,309 molecules per cell); E:T 1:4; 72 h
Protocol: as §1, §2

With `CC(C)(C)n1nc(Cc2cccc(I)c2)c2c(N)ncnc21` [3-IB-PP1, 3-iodo-benzyl-PP1] the IFN-γ production (SupT1 CD22 High [1]) was “increased in a dose-dependent manner”, the IL-2 release (SupT1 CD22 High [2]) was “increased levels of IL-2” and the IFN-γ release (SupT1 CD22 Low [3]) was “significantly higher IFN-γ concentrations compared to the media condition”. For the same compound, the IL-2 release (SupT1 CD22 Low [4]) was “increased levels of IL-2”, the cytotoxicity (SupT1 CD22 Low [5]) was “significantly increased compared to the media condition” and the IFN-γ release (SupT1 CD22 High [6]) was “significantly higher IFN-γ concentrations compared to the media condition”. The cytotoxicity (SupT1 CD22 High [7]) was “significantly increased compared to the media condition” and the cytotoxicity (SupT1 CD22 High [8]) was “increased in a dose-dependent manner”.
